Data reported in US9765074B2, “Inhibitors of the renal outer medullary potassium channel” (Merck Sharp & Dohme Corp., priority 2013, dated 2017).

Each compound was assayed against T1, hROMK (hKir1.1) (Homo sapiens, UniProt P48048) (assay: Thallium Flux Assay (ROMK channel functional thallium flux, FLIPR-Tetra)). Conditions: HEK293 cells stably expressing hROMK (hKir1.1); 30 min compound incubation.
T1 construct: expressed in transfected cells
T1 sequence (P48048 1-391): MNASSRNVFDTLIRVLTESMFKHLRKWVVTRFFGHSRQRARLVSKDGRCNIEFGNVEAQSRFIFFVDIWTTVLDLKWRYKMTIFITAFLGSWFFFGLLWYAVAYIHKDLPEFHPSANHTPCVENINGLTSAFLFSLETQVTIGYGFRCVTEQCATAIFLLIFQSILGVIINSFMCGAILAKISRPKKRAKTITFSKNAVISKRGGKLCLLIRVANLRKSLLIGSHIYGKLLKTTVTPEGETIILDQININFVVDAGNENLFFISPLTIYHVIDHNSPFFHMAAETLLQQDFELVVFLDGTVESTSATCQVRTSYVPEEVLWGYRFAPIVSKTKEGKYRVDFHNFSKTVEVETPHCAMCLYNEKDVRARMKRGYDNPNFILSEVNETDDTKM
Format: cell-based
Summary of the method: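 Thallium flux read by FluxOR fluorescence ([…]) for ~10 min after adding 3 mM Tl+/0.3 mM K+ final. Stable HEK-hKir1.1 cells were dye-loaded 90 min, exposed to compound 30 min at room temperature in ouabain/probenecid buffer; IC50 relative to a 3 μM control inhibitor.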

Structure (SMILES) | IC50
CC1=C(N2CCC3(CCN(C[C@H](O)c4cnc(-n5cnnn5)c(F)c4)CC3)C2=O)COC1=O [Example 26, 8-{(2R)-2-[5-fluoro-6-(1H-tetrazol-1-yl)pyridin-3-yl]-2-hydroxyethyl}-2-(4-methyl-5-oxo-2,5-dihydrofuran-3-yl)-1-oxo-2-aza-8-azoniaspiro[4.5]decane] | 40 nM
CC1=C(N2C(=O)C3(CCN(C[C@@H](O)c4ccc(-n5cnnn5)nn4)CC3)CC2C)COC1=O (single isomer, unassigned) [Example 126] | 90 nM
CC1=C(N2CCC3(CCN(C[C@@H](F)c4cnc(-n5cnnn5)cn4)CC3)C2=O)COC1=O [Example 277, 8-{(2R)-2-fluoro-2-[5-(1H-tetrazol-1-yl)pyrazin-2-yl]ethyl}-2-(4-methyl-5-oxo-2,5-dihydrofuran-3-yl)-1-oxo-2-aza-8-azoniaspiro[4.5]decane] | 80 nM
CC1=C(N2C=CC3(CCN([C@@H](C)Cc4nnc(-n5cnnn5)cc4C)CC3)C2=O)COC1=O (single isomer, unassigned) [Example 274] | 10 nM
CC1=C(N2C(=O)C3(CCN(C[C@@H](O)c4ccc(-n5cnnn5)cc4F)CC3)CC2C)COC1=O (single isomer, unassigned) [Example 142] | 30 nM
O=C1C=C(N2C(=O)C3(CCN(C[C@H](O)c4cnc(-n5cnnn5)cn4)CC3)CC2C2CC2)CO1 (mixture of isomers) [Example 212, 3-cyclopropyl-8-{(2S)-2-hydroxy-2-[5-(1H-tetrazol-1-yl)pyrazin-2-yl]ethyl}-2-(5-oxo-2,5-dihydrofuran-3-yl)-2,8-diazaspiro[4.5]decan-1-one] | 120 nM
CC1=C(N2CCC3(CCN(C[C@H](O)c4c(F)cc(-n5cnnn5)cc4F)CC3)C2=O)COC1=O [Example 76, 8-{(2R)-2-[2,6-difluoro-4-(1H-tetrazol-1-yl)phenyl]-2-hydroxyethyl}-2-(4-methyl-5-oxo-2,5-dihydrofuran-3-yl)-1-oxo-2-aza-8-azoniaspiro[4.5]decane] | 20 nM
CC1=C(N2CCC3(CCN(CCc4nnc(-n5cnnn5)cc4C)CC3)C2=O)COC1=O [Example 236, 2-(4-methyl-5-oxo-2,5-dihydrofuran-3-yl)-8-{2-[4-methyl-6-(1H-tetrazol-1-yl)pyridazin-3-yl]ethyl}-1-oxo-2-aza-8-azoniaspiro[4.5]decane] | 4 nM
CC1=C(N2CCC3(CCN(CCc4ccc(-n5cnnn5)nn4)CC3)C2=O)COC1=O [Example 232, 8-(2-(6-(1H-Tetrazol-1-yl)pyridazin-3-yl)ethyl)-2-(4-methyl-5-oxo-2,5-dihydrofuran-3-yl)-2,8-diazaspiro[4.5]decan-1-one] | 10 nM
CC1=C(N2CCC3(CCN(C[C@H](O)c4cncc(-n5cnnn5)c4)CC3)C2=O)COC1=O [Example 131, 8-{(2R)-2-hydroxy-2-[5-(1H-tetrazol-1-yl)pyridin-3-yl]ethyl}-2-(4-methyl-5-oxo-2,5-dihydrofuran-3-yl)-1-oxo-2-aza-8-azoniaspiro[4.5]decane] | 680 nM
C[C@H]1CC2(CCN(C[C@@H](O)c3cnc(-n4cnnn4)cn3)CC2)C(=O)N1C1=CC(=O)OC1 [Example 78, (3S)-8-{(2R)-2-hydroxy-2-[5-(1H-tetrazol-1-yl)pyrazin-2-yl]ethyl}-3-methyl-1-oxo-2-(5-oxo-2,5-dihydrofuran-3-yl)-2-aza-8-azoniaspiro[4.5]decane] | 10 nM
CC1=C(N2C=CC3(CCN(C[C@H](O)c4ccc(-n5cnnn5)nn4)CC3)C2=O)COC1=O [Example 146, 8-{(2S)-2-hydroxy-2-[6-(1H-tetrazol-1-yl)pyridazin-3-yl]ethyl}-2-(4-methyl-5-oxo-2,5-dihydrofuran-3-yl)-1-oxo-2-aza-8-azoniaspiro[4.5]dec-3-ene] | 50 nM
CC1=C(N2C(=O)C3(CCN(C[C@H](O)c4cnc(-n5cnnn5)cn4)CC3)CC2C)COC1=O (single isomer, unassigned) [Example 67] | 170 nM
CC1=C(N2CCC3(CCN(C[C@H](OC(C)C)c4ccc(-n5cnnn5)nc4)CC3)C2=O)COC1=O [Example 285, 8-{(2R)-2-(1-methylethoxy)-2-[6-(1H-tetrazol-1-yl)pyridin-3-yl]ethyl}-2-(4-methyl-5-oxo-2,5-dihydrofuran-3-yl)-1-oxo-2-aza-8-azoniaspiro[4.5]decane] | 50 nM
C[C@H]1CC2(CCN(CCc3ncc(-n4cnnn4)nc3C3CC3)CC2)C(=O)N1C1=CC(=O)OC1 [Example 270, (S)-8-(2-(3-cyclopropyl-5-(1H-tetrazol-1-yl)pyrazin-2-yl)ethyl)-3-methyl-2-(5-oxo-2,5-dihydrofuran-3-yl)-2,8-diazaspiro[4.5]decan-1-one] | 10 nM
CC1OC(=O)C=C1N1CCC2(CCN(C[C@H](O)c3ccc(-n4cnnn4)nc3)CC2)C1=O (mixture of isomers) [Example 226, 8-((R)-2-(6-(1H-tetrazol-1-yl)pyridin-3-yl)-2-hydroxyethyl)-2-(2-methyl-5-oxo-2,5-dihydrofuran-3-yl)-2,8-diazaspiro[4.5]decan-1-one] | 330 nM

Structure (SMILES) | IC50
COC1CN(C[C@@H](O)c2ccc(-n3cnnn3)nc2)CCC12CCN(C1=C(C)C(=O)OC1)C2=O (single isomer, unassigned) [Example 171] | 60 nM
CC1=C(N2CC(O)C3(CC4CCC(C3)N4C[C@@H](O)c3ccc(-n4cnnn4)nc3)C2=O)COC1=O (single isomer, unassigned) [Example 105] | 130 nM
COC1CN(C[C@H](O)c2ccc(-n3cnnn3)nc2)CCC12CCN(C1=C(C)C(=O)OC1)C2=O (single isomer, unassigned) [Example 176] | 90 nM
O=C1C=C(N2CCC3(CC4CCC(C3)N4C[C@H](O)c3ccc(-n4cnnn4)nn3)C2=O)CO1 (stereo partly drawn) [Example 44, (1R,5R)-8-{(2S)-2-hydroxy-2-[6-(1H-tetrazol-1-yl)pyridazin-3-yl]ethyl}-2′-oxo-1′-(5-oxo-2,5-dihydrofuran-3-yl)spiro[8-azoniabicyclo[3.2.1]octane-3,3′-pyrrolidine]] | 10 nM
CC1=C(N2CCC3(CC4COCC(C3)N4C[C@H](O)c3cnc(-n4cnnn4)cn3)C2=O)COC1=O (stereo partly drawn) [Example 181, 9-{(2S)-2-hydroxy-2-[5-(1H-tetrazol-1-yl)pyrazin-2-yl]ethyl}-1′-(4-methyl-5-oxo-2,5-dihydrofuran-3-yl)-2′H-spiro[7-oxa-9-azabicyclo[3.3.1]nonane-3,3′-pyrrolidin]-2′-one] | 150 nM
CC1=C(N2CCC3(CCN(C[C@H](O)c4cc(-n5cnnn5)ccn4)CC3)C2=O)COC1=O [Example 72, 8-{(2S)-2-hydroxy-2-[4-(1H-tetrazol-1-yl)pyridin-2-yl]ethyl}-2-(4-methyl-5-oxo-2,5-dihydrofuran-3-yl)-1-oxo-2-aza-8-azoniaspiro[4.5]decane] | 40 nM
COC1CN(C[C@@H](O)c2cnc(-n3cnnn3)cn2)CCC12CCN(C1=C(C)C(=O)OC1)C2=O (single isomer, unassigned) [Example 173] | 770 nM
CC1=C(N2C(=O)C3(CCN(C[C@@H](O)c4ccc(-n5cnnn5)nc4)CC3)CC2C)COC1=O (single isomer, unassigned) [Example 63] | 40 nM
CC1=C(N2C(=O)C3(CCN(C[C@@H](O)c4ccc(-n5cnnn5)cc4C)CC3)CC2C)COC1=O (single isomer, unassigned) [Example 140] | 10 nM
CC1(C)CC2(CCN(C[C@@H](O)c3ccc(-n4cnnn4)nn3)CC2)C(=O)N1C1=CC(=O)OC1 [Example 190, 8-{(2R)-2-hydroxy-2-[6-(1H-tetrazol-1-yl)pyridazin-3-yl]ethyl}-3,3-dimethyl-1-oxo-2-(5-oxo-2,5-dihydrofuran-3-yl)-2-aza-8-azoniaspiro[4.5]decane] | 50 nM
O=C1C=C(N2C=CC3(CCN(CCc4ccc(-n5cnnn5)nn4)CC3)C2=O)CO1 [Example 249, 1-oxo-2-(5-oxo-2,5-dihydrofuran-3-yl)-8-{2-[6-(1H-tetrazol-1-yl)pyridazin-3-yl]ethyl}-2-aza-8-azoniaspiro[4.5]dec-3-ene] | 40 nM
C[C@H]1CC2(CCN(C[C@@H](O)c3ccc(-n4cnnn4)nc3)CC2)C(=O)N1C1=CC(=O)OC1 [Example 82, (3S)-8-{(2S)-2-hydroxy-2-[6-(1H-tetrazol-1-yl)pyridin-3-yl]ethyl}-3-methyl-1-oxo-2-(5-oxo-2,5-dihydrofuran-3-yl)-2-aza-8-azoniaspiro[4.5]decane] | 10 nM
Cc1nc(-n2cnnn2)cnc1C(O)CN1CCC2(CC1)C[C@H](C)N(C1=CC(=O)OC1)C2=O (mixture of isomers) [Example 169, (3S)-8-{2-hydroxy-2-[3-methyl-5-(1H-tetrazol-1-yl)pyrazin-2-yl]ethyl}-3-methyl-2-(5-oxo-2,5-dihydrofuran-3-yl)-2,8-diazaspiro[4.5]decan-1-one] | 10 nM
CC1=C(N2CC(O)C3(CC4CCC(C3)N4C[C@H](O)c3ccc(-n4cnnn4)nc3)C2=O)COC1=O (single isomer, unassigned) [Example 106] | 60 nM
COC1CN(C2=C(C)C(=O)OC2)C(=O)C12CC1CCC(C2)N1C[C@H](O)c1ccc(-n2cnnn2)nc1 (single isomer, unassigned) [Example 161] | 30 nM
CC1=C(N2CCC3(CC4CCC(C3)N4C[C@H](O)c3cc(C)c(-n4cnnn4)nn3)C2=O)COC1=O (stereo partly drawn) [Example 55, (1R,5R)-8-{(2S)-2-hydroxy-2-[5-methyl-6-(1H-tetrazol-1-yl)pyridazin-3-yl]ethyl}-1′-(4-methyl-5-oxo-2,5-dihydrofuran-3-yl)-2′-oxospiro[8-azoniabicyclo[3.2.1]octane-3,3′-pyrrolidine]] | 50 nM
